Patent publication US20230382909A1, “BICYCLIC COMPOUNDS” (Aligos Therapeutics, Inc., priority 2022, published 2023)

Tests used:
[1] = Cell viability by CellTiter-Glo 2.0 (intracellular ATP content) in HepG2.117 cells; type: cell-based; conditions: human, CellTiter-Glo 2.0, 3 days incubation
How it was run: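 HepG2.117 cells (stable genotype D HBV, Tet-off) exposed 3 days at 37° C to 9 concentrations (4-fold dilutions) without doxycycline, 2% DMSO final. Viability read by CellTiter-Glo 2.0 luminescence as % of DMSO control; CC50 from non-linear regression dose-response fit.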

HBV = experiment: HBV-DNA antiviral assay using HepG2.117 cells; type: cell-based, HBV genotype D; conditions: Hepatitis B virus, HepG2.117, 72 h
How it was run: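 HepG2.117 cells (Tet-off, genotype D HBV genome) induced by doxycycline withdrawal, treated 3 days at 37 °C with 9 concentrations (4-fold dilution), 2% DMSO final. Intracellular HBV DNA quantified by qPCR against gBlock standard curve; inhibition relative to DMSO control.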

With Cc1cc(C)n(-c2nc3c(c(=O)n2-c2ccc(OC[C@@H](C)O)cc2)C[C@@H](C)N(C(=O)c2ccc(Br)c(C(F)(F)F)c2)C3)n1 [Compound 14, (6R)-7-[4-bromo-3-(trifluoromethyl)benzoyl]-2-(3,5-dimethylpyrazol-1-yl)-3-[4-[(2R)-2-hydroxypropoxy]phenyl]-6-methyl-6,8-dihydro-5H-pyrido[3,4-d]pyrimidin-4-one] the CC50 at 3 days [1] was over 500 nM and the EC50 (HBV) was under 50 nM.
For Cc1cc(C)n(-c2nc3c(c(=O)n2-c2ccc(O[C@H]4C[C@H](O)C4)cc2)C[C@@H](C)N(C(=O)c2ccc(Br)c(C(F)(F)F)c2)C3)n1 [Compound 38, (R)-7-(4-bromo-3-(trifluoromethyl)benzoyl)-2-(3,5-dimethyl-1H-pyrazol-1-yl)-3-(4-((1r,3R)-3-hydroxycyclobutoxy)phenyl)-6-methyl-5,6,7,8-tetrahydropyrido[3,4-d]pyrimidin-4(3H)-one], the CC50 at 3 days [1] was over 500 nM and the EC50 (HBV) was under 50 nM.
